Reference: patent US10975056B2 (GlaxoSmithKline Intellectual Property Development Limited, priority 2016, dated 2021)
Several values for one entry are separate records, joined by “and”; a condition that tells them apart may be missing. Equal entries are not always repeated. Structures can show the parent of a compound that is named as a salt. Where two headings read alike, the source gives them in different places.

Key:
[1] = biological target: DNMT1 (Homo sapiens, UniProt P26358); experiment: DNMT1 biochemical activity, breaklight assay and/or SPA assay
Chain of DNMT1 (P26358 whole entry, looked up): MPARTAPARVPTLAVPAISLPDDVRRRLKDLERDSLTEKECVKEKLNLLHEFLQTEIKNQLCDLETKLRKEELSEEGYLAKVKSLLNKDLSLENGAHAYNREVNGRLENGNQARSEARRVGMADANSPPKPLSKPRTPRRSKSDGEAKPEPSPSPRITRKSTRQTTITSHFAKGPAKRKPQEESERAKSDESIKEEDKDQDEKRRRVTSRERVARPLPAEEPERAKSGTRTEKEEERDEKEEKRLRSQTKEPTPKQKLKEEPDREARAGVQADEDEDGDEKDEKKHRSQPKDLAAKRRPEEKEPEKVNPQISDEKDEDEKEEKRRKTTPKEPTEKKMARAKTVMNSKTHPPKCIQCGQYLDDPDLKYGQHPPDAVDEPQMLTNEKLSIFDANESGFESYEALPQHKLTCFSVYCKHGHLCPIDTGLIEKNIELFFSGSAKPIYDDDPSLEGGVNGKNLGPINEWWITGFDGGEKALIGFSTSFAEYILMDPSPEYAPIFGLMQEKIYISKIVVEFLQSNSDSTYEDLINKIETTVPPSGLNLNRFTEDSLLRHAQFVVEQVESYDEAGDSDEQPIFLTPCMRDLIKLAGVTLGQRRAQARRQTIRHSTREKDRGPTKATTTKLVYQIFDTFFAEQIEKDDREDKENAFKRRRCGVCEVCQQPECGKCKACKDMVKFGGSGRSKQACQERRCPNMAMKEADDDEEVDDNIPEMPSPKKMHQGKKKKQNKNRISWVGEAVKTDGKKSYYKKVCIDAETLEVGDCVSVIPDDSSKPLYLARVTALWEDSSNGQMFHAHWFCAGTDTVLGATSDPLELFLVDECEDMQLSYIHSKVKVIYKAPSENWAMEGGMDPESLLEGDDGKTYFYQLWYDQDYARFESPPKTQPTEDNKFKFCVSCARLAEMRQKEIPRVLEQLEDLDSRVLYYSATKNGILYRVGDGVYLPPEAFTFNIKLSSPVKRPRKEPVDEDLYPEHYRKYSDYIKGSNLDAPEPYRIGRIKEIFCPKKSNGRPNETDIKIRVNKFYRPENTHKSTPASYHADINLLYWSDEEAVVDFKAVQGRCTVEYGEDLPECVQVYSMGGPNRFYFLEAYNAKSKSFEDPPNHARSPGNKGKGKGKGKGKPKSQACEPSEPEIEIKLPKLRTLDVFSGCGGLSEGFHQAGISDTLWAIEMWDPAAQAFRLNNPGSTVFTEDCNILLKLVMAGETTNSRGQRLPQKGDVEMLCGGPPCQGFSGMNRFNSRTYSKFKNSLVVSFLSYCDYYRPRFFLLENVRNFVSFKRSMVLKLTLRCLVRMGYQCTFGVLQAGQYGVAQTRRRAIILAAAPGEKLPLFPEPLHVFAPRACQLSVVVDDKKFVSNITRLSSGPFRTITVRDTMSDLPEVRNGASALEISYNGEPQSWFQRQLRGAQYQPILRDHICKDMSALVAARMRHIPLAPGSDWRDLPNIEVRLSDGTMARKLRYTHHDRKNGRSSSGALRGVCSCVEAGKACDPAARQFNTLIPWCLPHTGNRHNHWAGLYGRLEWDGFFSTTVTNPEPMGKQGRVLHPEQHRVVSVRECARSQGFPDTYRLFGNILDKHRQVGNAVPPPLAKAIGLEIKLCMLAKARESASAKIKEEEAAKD

[2] = tested on: erythroid progenitor cells (EPCs); experiment: Fetal hemoglobin (HbF) ELISA in day 7 erythroid progenitor cells; type: cell-based, human; conditions: Homo sapiens, Erythroid progenitor cell, HbF ELISA, day 7 EPCs, 5 days; read-out: EPC ELISA (pEC50 category) (converted);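 further: for fetal hemoglobin induction normalized to vehicle-treated cells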
Procedure, shortened: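 CD34+-derived EPCs, 1,000 cells/well, rhEPO 3 U/mL; Compound A 22-pt series, […]; 5 d, 37° C, 5% CO2. Freeze-thaw lysis, anti-HbF capture + HRP anti-HbF, TMB, OD450. Normalized to DMSO wells.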

[3] = binned activity in either the breaklight or the SPA assay
[4] = binned activity in either the breaklight or the SPA assay, read-out: DNMT1 BioChemical (pIC50 category) (converted)

Compound	DNMT1 BioChemical (pIC50 category) [1, 3]	EC50 [2]	IC50 [1, 4]	IC50 ([1]; breaklight assay and/or SPA assay, repeated experimental runs, read-out: average pIC50 against DNMT1 (converted))
CCc1c(C#N)c(SC(C(N)=O)c2ccccc2)nc(N2CCC(N3CCCC3)CC2)c1C#N (stereo not shown) [Example 411, 2-((3,5-Dicyano-4-ethyl-6-(4-(pyrrolidin-1-yl)piperidin-1-yl)pyridin-2-yl)thio)-2-phenylacetamide]	D (Category D: ≥6.5)	< 0.316 µM	–	–
CCc1c(C#N)c(S[C@@H](C(N)=O)c2ccccc2)nc(N2CCO[C@H](CN)C2)c1C#N [Example 561, (R)-2-((6-((R)-2-(aminomethyl)morpholino)-3,5-dicyano-4-ethylpyridin-2-yl)thio)-2-phenylacetamide, Hydrochloride]	D (Category D: ≥6.5)	< 0.316 µM	–	–
CCc1c(C#N)c(S[C@@H](C(N)=O)c2ccccc2)nc(N2CCO[C@H](CNC(=O)CO)C2)c1C#N [Example 599, N-(((R)-4-(6-(((R)-2-amino-2-oxo-1-phenylethyl)thio)-3,5-dicyano-4-ethylpyridin-2-yl)morpholin-2-yl)methyl)-2-hydroxyacetamide]	D (Category D: ≥6.5)	1 to 31.6 µM	–	–
CCc1c(C#N)c(SCc2ccc(CNC(=O)CN)cc2)nc(N2CC[C@@H](N)[C@@H](F)C2)c1C#N (relative stereo) [Example 546, rel-2-amino-N-(4-(((6-(cis-4-amino-3-fluoropiperidin-1-yl)-3,5-dicyano-4-ethylpyridin-2-yl)thio)methyl)benzyl)acetamide]	–	< 0.316 µM	0.316 to 1 µM	0.316 to 1 µM and 0.398 µM
N#Cc1c(SC(C(N)=O)c2ccccc2)nc(N2CCN(CCCN)CC2)c(C#N)c1C1CC1 (stereo not shown) [Example 124, 2-((6-(4-(3-Aminopropyl)piperazin-1-yl)-3,5-dicyano-4-cyclopropylpyridin-2-yl)thio)-2-phenylacetamide]	–	1 to 31.6 µM	0.316 to 1 µM	–
CCc1c(C#N)c(SC(C(N)=O)c2ccccc2)nc(N2CCC(NCC(N)=O)CC2)c1C#N (stereo not shown) [Example 393, 2-((6-(4-((2-Amino-2-oxoethyl)amino)piperidin-1-yl)-3,5-dicyano-4-ethylpyridin-2-yl)thio)-2-phenylacetamide]	D (Category D: ≥6.5)	0.316 to 1 µM	–	–
CCc1c(C#N)c(SC(C(N)=O)c2ccc(C)cn2)nc(N2CCCN(C)CC2)c1C#N (stereo not shown) [Example 205, 2-((3,5-Dicyano-4-ethyl-6-(4-methyl-1,4-diazepan-1-yl)pyridin-2-yl)thio)-2-(5-methylpyridin-2-yl)acetamide]	D (Category D: ≥6.5)	< 0.316 µM	–	–
CCc1c(C#N)c(SCc2ccc(CNC(C)=O)cc2)nc(N2CCC(N)CC2)c1C#N [Example 156, N-(4-(((6-(4-Aminopiperidin-1-yl)-3,5-dicyano-4-ethylpyridin-2-yl)thio)methyl)benzyl)acetamide, Trifluoroacetic Acid Salt]	D (Category D: ≥6.5)	0.316 to 1 µM	–	–
CCc1c(C#N)c(SCc2ccc(N(C)S(C)(=O)=O)cc2)nc(N2CCC(NC(C)C)CC2)c1C#N [Example 556, N-(4-(((3,5-dicyano-4-ethyl-6-(4-(isopropylamino)piperidin-1-yl)pyridin-2-yl)thio)methyl)phenyl)-N-methylmethanesulfonamide]	D (Category D: ≥6.5)	< 0.316 µM	–	–
CCc1c(C#N)c(SC(C(N)=O)c2ccccc2)nc(N2Cc3cn[nH]c3C2)c1C#N (stereo not shown) [Example 236, 2-((3,5-Dicyano-4-ethyl-6-(pyrrolo[3,4-c]pyrazol-5(1H,4H,6H)-yl)pyridin-2-yl)thio)-2-phenylacetamide]	D (Category D: ≥6.5)	> 31.6 µM	–	–
CCc1c(C#N)c(S[C@@H](C(N)=O)c2ccccc2)nc(N2CC[C@H](N)[C@@H](F)C2)c1C#N [Example 519, (R)-2-((6-((3S,4S)-4-amino-3-fluoropiperidin-1-yl)-3,5-dicyano-4-ethylpyridin-2-yl)thio)-2-phenylacetamide, Trifluoroacetic acid salt]	D (Category D: ≥6.5)	< 0.316 µM	–	–
CCc1c(C#N)c(SC(C(N)=O)c2ccccc2)nc(N(C)CCN2CC[C@H](N)C2)c1C#N (stereo partly drawn) [Example 535, 2-((6-((2-((S)-3-aminopyrrolidin-1-yl)ethyl)(methyl)amino)-3,5-dicyano-4-ethylpyridin-2-yl)thio)-2-phenylacetamide]	D (Category D: ≥6.5)	0.316 to 1 µM	–	–
CCc1c(C#N)c(SC(C(N)=O)c2ccccc2)nc(N(C)CC(=O)N2CCOCC2)c1C#N (stereo not shown) [Example 623, 2-((3,5-dicyano-4-ethyl-6-(methyl(2-morpholino-2-oxoethyl)amino)pyridin-2-yl)thio)-2-phenylacetamide]	D (Category D: ≥6.5)	< 0.316 µM	–	–
CCc1c(C#N)c(SC(C(N)=O)c2ccccc2)nc(N2CCC(ONC(=N)N)CC2)c1C#N (stereo not shown) [Example 634, 2-((3,5-dicyano-4-ethyl-6-(4-(guanidinooxy)piperidin-1-yl)pyridin-2-yl)thio)-2-phenylacetamide]	D (Category D: ≥6.5)	1 to 31.6 µM	–	–
CCc1c(C#N)c(SC(C(N)=O)c2ccccc2)nc(N2CC3NCCOC3C2)c1C#N (stereo not shown) [Example 204, 2-((3,5-Dicyano-4-ethyl-6-(hexahydropyrrolo[3,4-b][1,4]oxazin-6(2H)-yl)pyridin-2-yl)thio)-2-phenylacetamide]	–	1 to 31.6 µM	0.316 to 1 µM	–
CCc1c(C#N)c(SCc2ccc(N3CCCCS3(=O)=O)cc2)nc(N2CCC(N)CC2)c1C#N [Example 601, 2-(4-aminopiperidin-1-yl)-6-((4-(1,1-dioxido-1,2-thiazinan-2-yl)benzyl)thio)-4-ethylpyridine-3,5-dicarbonitrile]	D (Category D: ≥6.5)	> 31.6 µM	–	–
CCc1c(C#N)c(S[C@@H](C(N)=O)c2ccccc2)nc(N2CCC(N3CCCC3)CC2)c1C#N [Example 405, (R)-2-((3,5-Dicyano-4-ethyl-6-(4-(pyrrolidin-1-yl)piperidin-1-yl)pyridin-2-yl)thio)-2-phenylacetamide]	D (Category D: ≥6.5)	< 0.316 µM	–	–
CCc1c(C#N)c(S[C@H](C)c2ccc(N(C)S(C)(=O)=O)cc2)nc(N2CCC(N)CC2)c1C#N (single isomer, unassigned) [Example 681, N-(4-(1-((6-(4-aminopiperidin-1-yl)-3,5-dicyano-4-ethylpyridin-2-yl)thio)ethyl)phenyl)-N-methylmethanesulfonamide]	D (Category D: ≥6.5)	1 to 31.6 µM	–	–
CCc1c(C#N)c(SC(C(N)=O)c2ccccc2)nc(N2CCC(OP(=O)(O)O)C2)c1C#N (stereo not shown) [Example 150, 1-(6-((2-Amino-2-oxo-1-phenylethyl)thio)-3,5-dicyano-4-ethylpyridin-2-yl)pyrrolidin-3-yl dihydrogen phosphate]	–	> 31.6 µM	1 to 31.6 µM	–
CCc1c(C#N)c(SC(C(N)=O)c2ccccc2)nc(SC(C(N)=O)c2ccccc2)c1C#N (stereo not shown) [Example 276, 2,2′-((3,5-Dicyano-4-ethylpyridine-2,6-diyl)bis(sulfanediyl))bis(2-phenylacetamide)]	–	> 31.6 µM	0.316 to 1 µM	–
CCc1c(C#N)c(SC(C(N)=O)c2ccccc2)nc(N2CCC(NC(=O)CCCN)CC2)c1C#N (stereo not shown) [Example 629, 4-amino-N-(1-(6-((2-amino-2-oxo-1-phenylethyl)thio)-3,5-dicyano-4-ethylpyridin-2-yl)piperidin-4-yl)butanamide formate]	D (Category D: ≥6.5)	1 to 31.6 µM	–	–
